One data set has as its system HSV-1. Briefly: Virus yield reduction assay (plaque titration) HSV-1. It is filed as cell-based, Herpes simplex virus type 1 (clinical isolate) in Vero cells. Conditions: for IC50: Human alphaherpesvirus 1, HSV-1, Vero cells, MOI 0.1, 2 h pre-treatment, 48 h, plaque assay, read-out: IC50 values (compound concentration required to inhibit 50% of viral infectivity); for antiviral activity against HSV-1 (in words): virus yield reduction, Vero cells, MOI 0.1, 48 h, 100 µM (50 µM for 5f and 5k). Here is the method: (§1) Vero cells were seeded at a density of 3 × 10^5/well in a 24-well culture plate. Twenty-four hours later, the cells were pre-treated with the different drugs for 2 h at 37 °C, and then infected in duplicate with HSV-1 or HSV-2 at an MOI of 0.1, in the presence of the compounds; following virus adsorption, the viral inoculum was removed and cultures were exposed to the compounds for 48 h. The extent of HSV-1 and HSV-2 replication was then assessed by titrating the infectivity of supernatants and cell-associated viruses using a standard plaque assay in Vero cells. Plaques were microscopically counted, and the mean plaque counts for each drug concentration were expressed as plaque-forming units per milliliter (PFU/mL) (Figure 3).
(§2) The African green monkey kidney cells (Vero, ATCC CCL-81™) were cultured in Dulbecco’s Modified Eagle’s Medium, supplemented with 10% heat inactivated fetal bovine serum (FBS), 2 mM glutamine, 1 mM sodium pyruvate, 100 U/mL penicillin and 100 µg/mL streptomycin sulfate (Sigma-Aldrich, Milan, Italy). Clinical isolates of HSV-1 and HSV-2 were a generous gift from Valeria Ghisetti, Amedeo di Savoia Hospital, Turin, Italy. They were propagated and titrated by plaque assay on Vero cells, as previously described.
(§3) Vero cells were seeded in 24-well plates and pre-treated, after 24 h, with different concentrations of the amidinourea derivatives or the vehicle control (DMSO) for 2 h at 37 °C. They were then infected with HSV at MOI of 0.1 PFU/cell in the presence of the compounds. Following virus adsorption (2 h at 37 °C), the viral inoculum was removed, and the cultures were maintained in a medium that contained the corresponding molecule for 48 h. The cells and supernatants were then harvested and disrupted using three freeze (liquid nitrogen)/thaw (37 °C) cycles. The extent of virus replication was subsequently assessed by titrating the infectivity of the supernatants of the cell suspensions in Vero cells, as previously described. Plaques were microscopically counted, and the mean plaque counts for each drug concentration were expressed as PFU/mL.
(§4) Data were presented as the mean value and standard error of the mean (SEM). Data were analyzed by means of GraphPad Prism 5 software (GraphPad Software, Inc., La Jolla, CA, USA). Statistical analysis was performed using one-way ANOVA with Bonferroni’s post-test; p < 0.05 was considered statistically significant. The IC50 e CC50 values were calculated using the online tool Quest Graph™ IC50 Calculator, AAT Bioquest, Inc., Sunnyvale, CA, USA, https://www.aatbio.com/tools/ic50-calculator (accessed on 4 May 2021).
Figure 3 Antiviral activity of 5a–k against HSV-1 and HSV-2. Upper panel. Virus yield reduction assay. Vero cells were treated as described in the manuscript with the indicated compounds. The extent of (A) HSV-1 and (B) HSV-2 replication was then assessed by titrating the infectivity of supernatants and cell-associated viruses using a standard plaque assay in Vero cells. Plaques were microscopically counted, and the mean plaque counts for each molecule were expressed as PFU/mL. Mean ± SEM is shown (***, p < 0.001, one-way ANOVA followed by Bonferroni’s post-tests). Lower panel. Representative light microscopy images of Vero cells infected with (A) HSV-1 or (B) HSV-2 and treated with the indicated compounds, as described for virus yield reduction assay. Original magnification: 20×.
Figure 4 (A) Vero cells were infected with HSV-1 and, where indicated, the cells were treated with increasing concentrations of the indicated compounds, before and during virus adsorption. These remained in the culture media throughout the experiment. The extent of HSV-1 replication was then assessed by titrating the infectivity of supernatants and cell-associated viruses—obtained from freeze (liquid nitrogen)/thaw (37 °C) cycles—and combined using a standard plaque assay. […]

The next data set deals with HSV-2. The data set is described as follows: Virus yield reduction assay (plaque titration) HSV-2. Conditions: Vero cells, MOI 0.1, 48 h, 100 µM (50 µM for 5f and 5k). It is filed as cell-based, Herpes simplex virus type 2 (clinical isolate) in Vero cells. As to the method: as §1, §2, §3
Figure 3 Antiviral activity of 5a–k against HSV-1 and HSV-2. Upper panel. Virus yield reduction assay. Vero cells were treated as described in the manuscript with the indicated compounds. The extent of (A) HSV-1 and (B) HSV-2 replication was then assessed by titrating the infectivity of supernatants and cell-associated viruses using a standard plaque assay in Vero cells. Plaques were microscopically counted, and the mean plaque counts for each molecule were expressed as PFU/mL. Mean ± SEM is shown (***, p < 0.001, one-way ANOVA followed by Bonferroni’s post-tests). Lower panel. […]

Data set [1] in a line: Cytotoxicity assay (MTT) in Vero cells. It is filed as cell-based. Conditions: African green monkey, Vero cells (African green monkey kidney cells), compound concentration that produces 50% of cytotoxicity. As to the method:
We then investigated whether the new amidinourea derivatives 5a–k could affect HSV-1 and HSV-2 replication. We first assessed cell cytotoxicity of the compounds in African green monkey kidney cells (Vero) to rule out the possibility that antiviral activity was related to the cytotoxic effects of the drug (Table 1). Vero cells were seeded at a density of 3 × 10^4/well in a 96-well culture plate. After 24 h, the cells were treated with different dilutions of drugs, or mock-treated using the same amount of vehicle solution (DMSO). Forty-eight hours after treatment, cell viability was determined using a standard 3-(4,5-dimethylthiazol-2-yl)-2,5-diphenyltetrazolium bromide (MTT) assay. The compounds were considered non-toxic only if they maintained at least 70% cell viability after 48 h of treatment.
To determine the cytotoxicity of amidinourea derivatives, Vero cells were seeded in a 96-well culture plate and exposed to increasing concentrations of either compounds or vehicle (DMSO) the following day. After 48 h of incubation, the number of viable cells was determined using the 3-(4,5-dimethylthiazol-2-yl)-2,5-diphenyltetrazolium bromide (MTT) (Sigma-Aldrich, Milan, Italy) assay, as previously described.
as §4

A further data set relates to ICP27 and gD (HSV-1). Briefly: Western blot of viral gene expression in HSV-1-infected Vero cells. It is filed as cell-based, HSV-1 in Vero cells. Conditions: MOI 0.3, various times post infection, immunoblotting. Here is the method: (§5) Finally, to identify the phase of HSV replication program that is affected by amidinourea derivatives, the effects of 5i compound on viral gene expression was investigated in HSV-1 and HSV-2-infected cells. To this end, the total protein cell extracts were prepared from HSV-infected Vero cells treated with 5i, or vehicle control, for various lengths of time post infection. The expression patterns of ICP27, for HSV-1, ICP8, for HSV-2, gD, for HSV-1 and HSV-2, were then examined via immunoblotting with specific antibodies and were used as a reflection of the levels of immediate-early/early (ICP27, ICP8) and late (gD) viral products, respectively. […] However, the precise mechanism exploited by amidinourea derivatives to carry out their antiviral activity against HSV still deserves to be elucidated and is beyond the goals of the present communication.
(§6) After treatment, the cells were washed with phosphate-buffered saline (PBS), and cell lysis was carried out using radioimmunoprecipitation assay (RIPA) buffer to obtain total cell lysate. […]
(§7) Figure 5 Vero cells were mock infected or infected with HSV-1 (A) or HSV-2 (B) at an MOI of 0.3. Protein levels of ICP27 (HSV-1), ICP8 (HSV-2) and gD (HSV-1/2) were assessed at different times post infection (hpi) by Western blotting (upper panels). […]
In general terms: In western blotting, separated proteins are transferred to a membrane and probed.

A further data set deals with ICP8 and gD (HSV-2). Briefly: Western blot of viral gene expression in HSV-2-infected Vero cells. It is filed as cell-based, HSV-2 in Vero cells. Conditions: MOI 0.3, various times post infection, immunoblotting. Here is the method:
as §5, §6, §7

As usually defined, the CC50 is the concentration giving 50% cytotoxicity. Consider `N=C(NCc1ccccc1)NC(=O)N1CCN(c2ccc(Cl)cc2)CC1` [Compound 5j], for which, in the data set on HSV-1, the IC50 was determined as 72.1 µM and the “antiviral activity against HSV-1 (in words)” value was “very strong activity”. The “antiviral activity against HSV-2 (in words)” value in the data set on HSV-2 is given as “very strong activity”. Further, the CC50 at 48 h in data set [1] came out at 177 µM.
The molecule `N=C(NCc1ccccc1)NC(=O)N1CCN(c2ccccc2)CC1` [Compound 5g] registered a CC50 at 48 h in data set [1] of 246 µM.
For the molecule `N=C(NC(=O)N1CCN(c2ccccc2)CC1)Nc1ccc(Cl)cc1` [Compound 5i], the “expression of viral proteins ICP27 and gD (HSV-1)” value in the data set on ICP27 and gD (HSV-1) is listed as “overall decrease of viral proteins”. For the same molecule, the “antiviral activity against HSV-1 (in words)” value with HSV-1 was “very strong activity”. The “antiviral activity against HSV-2 (in words)” value in the data set with HSV-2 is given as “very strong activity”. Besides, the CC50 at 48 h in data set [1] is 149 µM. For the same molecule, in the data set on ICP8 and gD (HSV-2), the “expression of viral proteins ICP8 and gD (HSV-2)” value is on record as “overall decrease of viral proteins”.
Take `N=C(NC(=O)N1CCOCC1)Nc1ccc(Cl)cc1` [Compound 5d]: the “antiviral activity against HSV-1 (in words)” value in the data set on HSV-1 was “more pronounced against HSV-1”. Also, in data set [1], half-maximal cytotoxicity (CC50 at 48 h) was put at 1560 µM.
In data set [1], `N=C(NC(=O)NCCNc1ccccc1)Nc1ccc(Cl)cc1` [Compound 5e] gave a CC50 at 48 h of 142 µM.
On to `CC(NC(=O)NC(=N)Nc1ccc(Cl)cc1)c1ccccc1` (stereo not drawn) [Compound 5b], for which the CC50 at 48 h in data set [1] worked out at 196 µM.
Still for that read-out and setting: under `N=C(NCc1ccccc1)NC(=O)N1CCN(c2ccc(F)cc2)CC1` [Compound 5h] stands 389 µM.
Take `N=C(NC(=O)N1CCN(C23CC4CC(CC(C4)C2)C3)CC1)Nc1ccc(Cl)cc1` [Compound 5k]: in the data set with HSV-1, the IC50 turned out to be 18.5 µM and the “antiviral activity against HSV-1 (in words)” value is “very strong activity”. The “antiviral activity against HSV-2 (in words)” value in the data set with HSV-2 is recorded as “very strong activity”. The molecule also came in with a CC50 at 48 h in data set [1] of 86.7 µM.
Regarding `Cc1ccc(CNC(=O)NC(=N)Nc2ccc(Cl)cc2)cc1` [Compound 5c], in data set [1], the CC50 at 48 h was 184 µM.
`N=C(N)/N=C(\N)N1CCOCC1` [moroxydine, reference compound]: in the data set on HSV-1, the “antiviral activity against HSV-1 (in words)” value is recorded as “does not show any antiviral activity”. For the same molecule, in the data set on HSV-2, the “antiviral activity against HSV-2 (in words)” value is given as “does not show any antiviral activity”.
As to `N=C(NC(=O)NCc1ccc(Cl)cc1)Nc1ccc(Cl)cc1` [Compound 5a], the CC50 at 48 h in data set [1] is 168 µM.
On the same count and under the same terms, next, `N=C(NC(=O)N1CCNC(c2ccccc2)C1)Nc1ccc(Cl)cc1` (stereo not drawn) [Compound 5f]: 98.6 µM.
